According to patent publication US9561231B2 (AbbVie Inc., priority 2012, dated 2017):
Like-named read-outs stand apart in the source and are kept apart here.

Experiments:
[1] = target: T1, first (BD1: amino acids K57-E168) bromodomain of BRD4 (Homo sapiens, UniProt O60885); experiment: TR-FRET bromodomain binding assay, BRD4 BD1; conditions: Ki calculated from IC50, probe Kd and probe concentration, read-out: TR-FRET Binding Ki: BRD4 (BDI_K57-E168)
T1 construct: His-tagged first (BD1: amino acids K57-E168)
How it was run: (§1)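 Displacement of Alexa647-labeled BET-inhibitor probe from His-tagged bromodomain, TR-FRET read-out; buffer 20 mM Na phosphate pH 6.0, 50 mM NaCl, 0.01% Triton X-100. IC50 by 4PL fit; Ki calculated from IC50, probe Kd and probe concentration.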

[2] = system: breast cancer cell line MX-1; experiment: MX-1 cell line proliferation assay (3-day); format: cell-based; conditions: Homo sapiens, MX1, MX-1 cells, Cell Titer Glo, read-out: Cellular proliferation: EC50
How it was run: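 MX-1 cells in RPMI/10% FBS, plated 5000/well overnight, then exposed to compound at final 3 to 0.0001 μM (3-fold series) for 3 days at 37° C. Cell Titer Glo luminescence normalized to DMSO-treated cells; EC50 from sigmoidal curve fit.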

[3] = target: T2, second (BD2: amino acids E352-E168) bromodomain of BRD4 (Homo sapiens, UniProt O60885); experiment: TR-FRET bromodomain binding assay, BRD4 BD2; conditions: Ki calculated from IC50, probe Kd and probe concentration, read-out: TR-FRET Binding Ki: BRD4 (BDII_E352-M457)
T2 construct: protocol
How it was run: as §1

[4] = TR-FRET assay protocol (A-G, compound concentration range)
[5] = TR-FRET assay protocol (D, E or G) per compound

| Compound | Ki [1, 4] | EC50 ([2]; 72 h incubation) | Ki [3, 4] | Ki [1, 5] | EC50 ([2]; 72 hours with compound) | Ki [3, 5] |
| --- | --- | --- | --- | --- | --- | --- |
| CCOc1cc(=O)n(C)cc1-c1cc(NS(=O)(=O)c2ccccc2)ccc1Oc1ccc(F)cc1F [Example 344, N-[4-(2,4-difluorophenoxy)-3-(4-ethoxy-1-methyl-6-oxo-1,6-dihydropyridin-3-yl)phenyl]benzenesulfonamide] | 23.1 nM | 271 nM | 5.07 nM | – | – | – |
| CCS(=O)(=O)Nc1ccc(Oc2ccc(F)cc2F)c(-c2cn(C)c(=O)cc2-c2cnn(CCN3CCOCC3)c2)c1 [Example 345, N-[4-(2,4-difluorophenoxy)-3-(1-methyl-4-{1-[2-(morpholin-4-yl)ethyl]-1H-pyrazol-4-yl}-6-oxo-1,6-dihydropyridin-3-yl)phenyl]ethanesulfonamide] | 10.2 nM | 126 nM | 5.44 nM | – | – | – |
| CCOc1cc(=O)n(C)cc1-c1cc(NS(=O)(=O)c2ccc(C(C)C)cc2)ccc1Oc1ccc(F)cc1F [Example 347, N-[4-(2,4-difluorophenoxy)-3-(4-ethoxy-1-methyl-6-oxo-1,6-dihydropyridin-3-yl)phenyl]-4-(propan-2-yl)benzenesulfonamide] | 169 nM | 1560 nM | 53.4 nM | – | – | – |
| CCCS(=O)(=O)Nc1ccc(Oc2ccc(F)cc2F)c(-c2cn(C)c(=O)cc2OCC)c1 [Example 349, N-[4-(2,4-difluorophenoxy)-3-(4-ethoxy-1-methyl-6-oxo-1,6-dihydropyridin-3-yl)phenyl]propane-1-sulfonamide] | 43.8 nM | 151 nM | 8.71 nM | – | – | – |
| CCOc1cc(=O)n(C)cc1-c1cc(NS(=O)(=O)Cc2ccccc2F)ccc1Oc1ccc(F)cc1F [Example 351, N-[4-(2,4-difluorophenoxy)-3-(4-ethoxy-1-methyl-6-oxo-1,6-dihydropyridin-3-yl)phenyl]-1-(2-fluorophenyl)methanesulfonamide] | 25.7 nM | 360 nM | 29.8 nM | – | – | – |
| CCS(=O)(=O)Nc1ccc(Oc2ccc(F)cc2F)c(-c2cc(F)c(=O)n(C)c2)c1 [Example 352, N-[4-(2,4-difluorophenoxy)-3-(5-fluoro-1-methyl-6-oxo-1,6-dihydropyridin-3-yl)phenyl]ethanesulfonamide] | 26.8 nM | 256 nM | 77.9 nM | – | – | – |
| CCS(=O)(=O)Nc1ccc(Oc2ccc(F)cc2F)c(-c2cn(C)c(=O)cc2NCC2CC2)c1 [Example 353, N-[3-{4-[(cyclopropylmethyl)amino]-1-methyl-6-oxo-1,6-dihydropyridin-3-yl}-4-(2,4-difluorophenoxy)phenyl]ethanesulfonamide] | 4.41 nM | 56.9 nM | 2.3 nM | – | – | – |
| CCCc1cc(=O)n(C)cc1-c1cc(NS(=O)(=O)CC)ccc1Oc1ccc(F)cc1F [Example 359, N-[4-(2,4-difluorophenoxy)-3-(1-methyl-6-oxo-4-propyl-1,6-dihydropyridin-3-yl)phenyl]ethanesulfonamide] | 12.6 nM | 112 nM | 5.1 nM | – | – | – |
| CCS(=O)(=O)Nc1ccc(Oc2ccc(F)cc2F)c(-c2cn(C)c(=O)cc2NC2CC2)c1 [Example 362, N-{3-[4-(cyclopropylamino)-1-methyl-6-oxo-1,6-dihydropyridin-3-yl]-4-(2,4-difluorophenoxy)phenyl}ethanesulfonamide] | 5.81 nM | 33.6 nM | 2.76 nM | – | – | – |
| CC(C)S(=O)(=O)c1ccc(Oc2ccc(F)cc2F)c(-c2ccc(=O)n(C)c2)c1 [Example 364, 5-[2-(2,4-difluorophenoxy)-5-(propan-2-ylsulfonyl)phenyl]-1-methylpyridin-2(1H)-one] | 84.4 nM | 878 nM | 153 nM | – | – | – |
| CCOc1cc(=O)n(C)cc1-c1cc(CS(C)(=O)=O)ccc1Oc1ccc(F)cc1F [Example 370, 5-{2-(2,4-difluorophenoxy)-5-[(methylsulfonyl)methyl]phenyl}-4-ethoxy-1-methylpyridin-2(1H)-one] | 52.7 nM | 135 nM | 39.5 nM | – | – | – |
| CCS(=O)(=O)Nc1ccc(Oc2ccc(F)cc2F)c(-c2cn(C)c(=O)cc2OCCC(C)(C)O)c1 [Example 372, N-{4-(2,4-difluorophenoxy)-3-[4-(3-hydroxy-3-methylbutoxy)-1-methyl-6-oxo-1,6-dihydropyridin-3-yl]phenyl}ethanesulfonamide] | 33.5 nM | 205 nM | 14.3 nM | – | – | – |
| CCOc1cc(=O)n(C)cc1-c1cc(S(=O)(=O)CC)ccc1NC1CC1 [Example 373, 5-[2-(cyclopropylamino)-5-(ethylsulfonyl)phenyl]-4-ethoxy-1-methylpyridin-2(1H)-one] | – | – | – | 118 nM | 859 nM | 167 nM |
| CCS(=O)(=O)Nc1ccc(Oc2ccc(F)cc2F)c(-c2cn(C)c(=O)cc2OCC(C)(C)O)c1 [Example 376, N-{4-(2,4-difluorophenoxy)-3-[4-(2-hydroxy-2-methylpropoxy)-1-methyl-6-oxo-1,6-dihydropyridin-3-yl]phenyl}ethanesulfonamide] | – | – | – | 123 nM | 708 nM | 17.1 nM |
| CCOc1cc(=O)n(C)cc1-c1cc(S(=O)(=O)CC)ccc1Oc1ccc(OC(F)(F)F)cc1 [Example 377, 4-ethoxy-5-{5-(ethylsulfonyl)-2-[4-(trifluoromethoxy)phenoxy]phenyl}-1-methylpyridin-2(1H)-one] | – | – | – | 53.4 nM | 92.4 nM | 6.41 nM |
| CCOc1cc(=O)n(C)cc1-c1cc(S(=O)(=O)CC)ccc1Oc1ccc(C#N)cc1 [Example 378, 4-[2-(4-ethoxy-1-methyl-6-oxo-1,6-dihydropyridin-3-yl)-4-(ethylsulfonyl)phenoxy]benzonitrile] | – | – | – | 113 nM | 103 nM | 31.7 nM |
| CCOc1cc(=O)n(C)cc1-c1cc(CS(=O)(=O)CC)ccc1Oc1ccc(F)cc1F [Example 379, 5-{2-(2,4-difluorophenoxy)-5-[(ethylsulfonyl)methyl]phenyl}-4-ethoxy-1-methylpyridin-2(1H)-one] | – | – | – | 62.1 nM | 126 nM | 16.1 nM |
| CCOc1cc(=O)n(C)cc1-c1cc(C(C)(C)S(=O)(=O)CC)ccc1Oc1ccc(F)cc1F [Example 380, 5-{2-(2,4-difluorophenoxy)-5-[2-(ethylsulfonyl)propan-2-yl]phenyl}-4-ethoxy-1-methylpyridin-2(1H)-one] | – | – | – | 14.3 nM | 38.4 nM | 3.88 nM |
| CCOc1cc(=O)n(C)cc1-c1cc(NS(=O)(=O)CC)ccc1OCC1CC1 [Example 381, N-[4-(cyclopropylmethoxy)-3-(4-ethoxy-1-methyl-6-oxo-1,6-dihydropyridin-3-yl)phenyl]ethanesulfonamide] | – | – | – | 33.4 nM | 115 nM | 56.1 nM |
| CCOc1cc(=O)n(C)cc1-c1cc(NS(=O)(=O)CC)ccc1OCCC1CC1 [Example 383, N-[4-(2-cyclopropylethoxy)-3-(4-ethoxy-1-methyl-6-oxo-1,6-dihydropyridin-3-yl)phenyl]ethanesulfonamide] | – | – | – | 43.2 nM | 83.6 nM | 82.8 nM |
| CCOc1cc(=O)n(C)cc1-c1cc(NS(=O)(=O)CC)ccc1OC1CCC1 [Example 384, N-[4-(cyclobutyloxy)-3-(4-ethoxy-1-methyl-6-oxo-1,6-dihydropyridin-3-yl)phenyl]ethanesulfonamide] | – | – | – | 65.3 nM | 237 nM | 146 nM |
| CCOc1cc(=O)n(C)cc1-c1cc(NS(=O)(=O)CC)ccc1OC1CCC(F)(F)CC1 [Example 385, N-{4-[(4,4-difluorocyclohexyl)oxy]-3-(4-ethoxy-1-methyl-6-oxo-1,6-dihydropyridin-3-yl)phenyl}ethanesulfonamide] | – | – | – | 55.3 nM | 254 nM | 140 nM |
| CCOc1cc(=O)n(C)cc1-c1cc(NS(=O)(=O)CC)ccc1Oc1ccc(C(F)(F)F)cc1 [Example 386, N-{3-(4-ethoxy-1-methyl-6-oxo-1,6-dihydropyridin-3-yl)-4-[4-(trifluoromethyl)phenoxy]phenyl}ethanesulfonamide] | – | – | – | 81.8 nM | 54.1 nM | 10.2 nM |
| CCS(=O)(=O)Nc1ccc(Oc2ccc(F)cc2F)c(-c2cn(C)c(=O)cc2-c2cnn(Cc3ccccc3)c2)c1 [Example 390, N-{3-[4-(1-benzyl-1H-pyrazol-4-yl)-1-methyl-6-oxo-1,6-dihydropyridin-3-yl]-4-(2,4-difluorophenoxy)phenyl}ethanesulfonamide] | – | – | – | 36.5 nM | 79.8 nM | 13.5 nM |
| CCS(=O)(=O)Nc1ccc(Oc2ccc(F)cc2F)c(-c2cn(C)c(=O)cc2-c2cnn(CC(C)C)c2)c1 [Example 391, N-[4-(2,4-difluorophenoxy)-3-{1-methyl-4-[1-(2-methylpropyl)-1H-pyrazol-4-yl]-6-oxo-1,6-dihydropyridin-3-yl]phenyl}ethanesulfonamide] | – | – | – | 9.05 nM | 57.3 nM | 4.59 nM |
